We go through 1 compound from paper PMC4076632, “VAV3 mediates resistance to breast cancer endocrine therapy” (Breast Cancer Research : BCR, 2014).

As usually defined, the Ki is the equilibrium dissociation constant of an inhibitor or competing ligand from its target.

The assay has as its target T1, estrogen receptor α (ERα) (Homo sapiens, UniProt P03372).
T1 construct: gene ESR1
T1 sequence (P03372 1-595): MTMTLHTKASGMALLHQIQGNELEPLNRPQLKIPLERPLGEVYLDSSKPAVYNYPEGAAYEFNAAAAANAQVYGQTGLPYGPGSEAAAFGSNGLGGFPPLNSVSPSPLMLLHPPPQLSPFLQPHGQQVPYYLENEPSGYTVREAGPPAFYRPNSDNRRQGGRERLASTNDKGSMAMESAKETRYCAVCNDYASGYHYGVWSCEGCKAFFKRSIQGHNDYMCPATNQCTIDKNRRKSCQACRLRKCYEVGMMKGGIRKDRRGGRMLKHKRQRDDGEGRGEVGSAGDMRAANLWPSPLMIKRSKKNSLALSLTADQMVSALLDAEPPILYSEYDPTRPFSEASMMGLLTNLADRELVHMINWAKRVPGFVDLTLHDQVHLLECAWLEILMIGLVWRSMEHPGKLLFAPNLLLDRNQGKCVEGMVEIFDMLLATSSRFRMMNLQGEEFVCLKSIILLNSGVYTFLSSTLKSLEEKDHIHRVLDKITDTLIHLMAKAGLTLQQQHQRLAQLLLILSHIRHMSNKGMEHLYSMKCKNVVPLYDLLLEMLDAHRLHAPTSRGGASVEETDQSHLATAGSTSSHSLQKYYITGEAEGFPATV
Put plainly: ERα agonist fluoligand competition assay (Cerep) with fluorescein-labeled estradiol. It is filed as binding.

`OCc1ccc(-c2nn(Cc3ccccc3)c3ccccc23)o1` [YC-1, 3-(5′-hydroxymethyl-2′-furyl)-1-benzylindazole] had a Ki of 26 µM.
